{
  "source": "patent US20160015770A1",
  "about": "“COMPOSITIONS FOR TREATMENT OF RETINAL DETACHMENT” (THE REGENTS OF THE UNIVERSITY OF MICHIGAN, priority 2013, published 2016)",
  "key": {"calpain 1": {"target": "T1, calpain 1 (Rattus norvegicus, UniProt P97571)", "T1 construct": "Retinas from experimental eyes with detachment (detached portion of retina only) and control eyes without detachment were dissected from the RPE-choroid, homogenized, and lysed; from tissue; host or cells: rat retina (in vivo retinal detachment model)", "T1 sequence (P97571 1-713)": "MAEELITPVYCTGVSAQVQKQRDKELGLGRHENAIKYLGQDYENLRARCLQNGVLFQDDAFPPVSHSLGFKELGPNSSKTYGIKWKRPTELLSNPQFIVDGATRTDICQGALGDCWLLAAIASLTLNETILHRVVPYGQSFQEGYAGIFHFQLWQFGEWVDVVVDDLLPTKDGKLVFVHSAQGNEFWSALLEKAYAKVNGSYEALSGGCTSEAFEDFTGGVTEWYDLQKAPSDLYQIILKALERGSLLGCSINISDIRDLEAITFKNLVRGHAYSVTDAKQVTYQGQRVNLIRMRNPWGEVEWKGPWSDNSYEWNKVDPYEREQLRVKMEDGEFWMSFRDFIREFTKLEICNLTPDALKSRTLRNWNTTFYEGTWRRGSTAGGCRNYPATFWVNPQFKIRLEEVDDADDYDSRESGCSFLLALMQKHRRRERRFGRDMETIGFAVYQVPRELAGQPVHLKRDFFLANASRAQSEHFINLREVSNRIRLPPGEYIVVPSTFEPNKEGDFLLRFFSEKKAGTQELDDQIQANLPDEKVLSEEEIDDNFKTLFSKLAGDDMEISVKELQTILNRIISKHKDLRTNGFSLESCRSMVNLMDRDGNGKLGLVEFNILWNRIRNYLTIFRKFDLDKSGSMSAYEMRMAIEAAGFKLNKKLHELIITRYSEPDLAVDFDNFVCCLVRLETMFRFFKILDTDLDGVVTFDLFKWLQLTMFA", "T1 sequence (Q64537 1-270 partner)": "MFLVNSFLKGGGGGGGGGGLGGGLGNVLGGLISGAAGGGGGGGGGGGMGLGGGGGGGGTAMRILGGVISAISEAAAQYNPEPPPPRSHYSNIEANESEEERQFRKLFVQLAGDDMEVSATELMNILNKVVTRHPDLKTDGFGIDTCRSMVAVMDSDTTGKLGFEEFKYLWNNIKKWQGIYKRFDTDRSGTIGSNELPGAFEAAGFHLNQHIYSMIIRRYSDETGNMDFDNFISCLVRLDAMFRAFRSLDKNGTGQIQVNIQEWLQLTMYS", "assay": "Experimental retinal detachment, western blot of calpain 1 specific cleaved alpha-spectrin in retina", "type": "in vivo", "details": "0.2 μg subretinal at time of detachment, 7 days after detachment, vs vehicle (DMSO)", "source_text": "Detachments were created in adult male Brown-Norway rats (300-400 g; Charles River Laboratories, Wilmington, Mass.) as described previously. Briefly, rodents were anesthetized with a 50:50 mix of ketamine/xylazine, and pupils were dilated with topical phenylephrine (2.5%) and tropicamide (1%). A 20-gauge microvitreoretinal blade was used to create a sclerotomy 2 mm posterior to the limbus, carefully avoiding lens damage. A subretinal injector (Glaser, 32-gauge tip; BD Ophthalmic Systems, Franklin Lakes, N.J.) was introduced through the sclerotomy into the vitreous cavity and then through a peripheral retinotomy into the subretinal space. […]\nRetinas from experimental eyes with detachment (detached portion of retina only) and control eyes without detachment were dissected from the RPE-choroid, homogenized, and lysed in buffer containing 10 mM HEPES (pH 7.6), 0.5% IgEPal, 42 mM KCl, 1 mM phenylmethylsulfonyl fluoride, 1 mM EDTA, 1 mM EGTA, 1 mM dithiothreitol, 5 mM MgCl2, and one tablet of protease inhibitors per 10 mL buffer (Complete Mini; Roche Diagnostics GmbH, Madison, Wis.). […] The protein concentration of the supernatant was then determined (DC Protein Assay kit; Bio-Rad Laboratories, Hercules, Calif.). The protein samples were separated on SDS-polyacrylamide gels (Tris-HCl Ready Gels; Bio-Rad Laboratories). […]"}, "661W cells": {"test_system": "661W cells", "assay": "Western blot of autophagy markers LC3-II and Atg5-12 in 661W cells treated with Fas activating antibody", "type": "cell-based, mouse", "set-up": "presence of LC3-II and Atg5-12 over time (prolongation of autophagy): dose or concentration left out as unconfirmed", "details": "Fas activation", "experimental": "The 661W photoreceptor cell line was generously provided by Dr. Muayyad Al-Ubaidi (Department of Cell Biology, University of Oklahoma Health Sciences Center, Oklahoma City, Okla.). The 661W cell line was maintained in Dulbecco's modified Eagle's medium containing 10% fetal bovine serum, 300 mg/L glutamine, 32 mg/L putrescine, 40 μL/L β-mercaptoethanol, and 40 μg/L of both hydrocortisone 21-hemisuccinate and progesterone. The media also contained penicillin (90 units/mL) and streptomycin (0.09 mg/mL). Cells were grown at 37° C. in a humidified atmosphere of 5% CO2 and 95% air. Retinas from experimental eyes with detachment (detached portion of retina only) and control eyes without detachment were dissected from the RPE-choroid, homogenized, and lysed in buffer containing 10 mM HEPES (pH 7.6), 0.5% […], 42 mM KCl, 1 mM phenylmethylsulfonyl fluoride, 1 mM EDTA, 1 mM EGTA, 1 mM dithiothreitol, 5 mM MgCl2, and one tablet of protease inhibitors per 10 mL buffer (Complete Mini; Roche Diagnostics GmbH, Madison, Wis.). 661W cells were plated at 150,000 cells per well in six-well culture dishes in growth media. […] The protein concentration of the supernatant was then determined (DC Protein Assay kit; Bio-Rad Laboratories, Hercules, Calif.). The protein samples were separated on SDS-polyacrylamide gels (Tris-HCl Ready Gels; Bio-Rad Laboratories). […]"}},
  "note": "“Also recorded” adds a separate entry of the source.",
  "data": [
    {"smiles": "CCCC[C@@H](C=O)NC(=O)[C@H](CC(C)C)NC(=O)OCc1ccccc1", "note": "[calpeptin]", "values": [
      {"measurement": "cleaved calpain 1 specific alpha-spectrin in retina", "setting": "calpain 1", "result": "significantly less; also recorded: less cleaved alpha-spectrin"},
      {"measurement": "dose at which LC3-II and Atg5-12 peaked (dose response for increasing autophagy)", "setting": "661W cells; 24 hours", "result": 25, "unit": "µM"},
      {"measurement": "presence of LC3-II and Atg5-12 over time (prolongation of autophagy)", "setting": "661W cells; various lengths of time, calpeptin as printed, vs Fas activation alone / DMSO", "result": "lasted for an extended period of time; also recorded: elongated presence of LC3-II and Atg5-12"}
    ]}
  ]
}
